Reference: patent publication US20260327578A1, “TRANSGLUTAMINASES AND USES THEREOF” (CURIE CO. INC., priority 2023, published 2026)

Key:
C. albicans = experiment: Preservative efficacy in body lotion against C. albicans; format: cell-based; settings: 0.005% in combinations, phenoxyethanol 0.7% alone, 0.3% combined, caprylyl glycol 0.7% alone, 0.35% combined, sodium benzoate 0.5% + EDTA 0.5%, 2% 2:1 propanediol:hexanediol, 0.5% CHA solution
Method: (§1) A vessel was filled with deionized water, placed under an overhead stirrer set to moderate mixing, and heated to 75-80° C. Glycerin was added to 2% and mixed until dissolved, followed by xanthan gum to 0.2%. At 75-80° C., cetearyl glucoside and cetearyl alcohol were added to 4% and 3%. Once both had melted fully, milk thistle seed oil was added and the batch was homogenized with a Silverson homogenizer with the standard emulsion screen until the batch had turned milky white. The batch was removed from heat and returned to propellor mixing with decreased speed to allow the emulsion to set up. At 40° C., pH was adjusted to pH 5.5-6.0 using citric acid or sodium hydroxide and split into several portions and allowed to finish cooling. Once cooled to room temperature, one portion of the body lotion was left unpreserved and the remaining portions were preserved with one or more substances selected from aseptilase, phenoxyethanol, caprylyl glycol, sodium benzoate, and EDTA. All samples were inoculated with E. coli (10^6 CFU/mL) and C. albicans (10^5 CFU/mL) and plated after 2 and 7 days.

E. coli = experiment: Preservative efficacy in body lotion against E. coli; format: cell-based; settings: 0.005% in combinations, phenoxyethanol 0.7% alone, 0.3% combined, caprylyl glycol 0.7% alone, 0.35% combined, sodium benzoate 0.5% + EDTA 0.5%, 2% 2:1 propanediol:hexanediol, 0.5% CHA solution
Method: as §1

Compound	Preservative efficacy against C. albicans, log reduction (C. albicans; day 2, aseptilase 0.01% alone) [log reduction in CFU/mL]	Preservative efficacy against C. albicans, log reduction (C. albicans; day 7, aseptilase 0.01% alone) [log reduction in CFU/mL]	Preservative efficacy against E. coli, log reduction (E. coli; day 2, aseptilase 0.01% alone) [log reduction in CFU/mL]	Preservative efficacy against E. coli, log reduction (E. coli; day 7, aseptilase 0.01% alone) [log reduction in CFU/mL]
CCCCCCC(O)CO (centres unmarked) [caprylyl glycol]	1.18	2.70	5.00	5.00
OCCOc1ccccc1 [phenoxyethanol]	0.68	1.73	2.15	3.00
